Source: patent US11033518B2, “Pharmaceutical composition containing niclosamide for treating axin-GSK3 interaction-related diseases” (BAOBAB PHARM CO., LTD., priority 2017, dated 2021)

Key:
beta-catenin (β-catenin) = test: beta-catenin western blot in colorectal cancer cells; assay type: cell-based; settings: 0, 0.125, 0.25, 0.5 nM, 24 hours; as concentration increased
Description: (§1) At first, after treating niclosamide of nM units at concentrations of 0 nM, 0.125 nM, 0.25 nM and 0.5 nM to colorectal cancer cells for 24 hours, the beta-catenin (β-catenin) activity and TCF/LEF reporter (Topflash) activity of colorectal cancer cells were measured.
For beta-catenin, western blot was performed using β-catenin (#610154, BD Transduction, 1:5,000) antibody, and as a result, as shown in B (left) of FIG. 1, expression of beta-catenin in colorectal cancer cells was reduced as the concentration of treated niclosamide was increased.

[1] = tested on: TCF/LEF transcriptional activity; test: TCF/LEF reporter (Topflash) dual luciferase assay in colorectal cancer cells; assay type: cell-based; settings: 0, 0.125, 0.25, 0.5 nM; as concentration increased
Description: as §1
The TCF/LEF transcriptional activity was carried out by transformation with 100 ng of a reporter gene and 1 ng of transfection control pRL-SV40-Renilla. The reporter activity was measured with a dual luciferase assay system (Promega) in 48 hours after infection, and was standardized by measuring the co-transformed renilla activity, and the reporter gene activity was represented by light units in proportion to light units obtained from the negative control group.

[2] = target: T1, recombinant GSK3 beta - Axin peptide interaction (Homo sapiens, UniProt P49841); test: Competitive binding of FITC-linked 19-mer Axin peptide to recombinant GSK3 (fluorometry); settings: 2 hours, Ni-Ti beads
T1 construct: made in house; host or cells: Sf9 insect cells (GSK3 beta); The peptide was synthesized by Peptron
T1 sequence (P49841 whole entry): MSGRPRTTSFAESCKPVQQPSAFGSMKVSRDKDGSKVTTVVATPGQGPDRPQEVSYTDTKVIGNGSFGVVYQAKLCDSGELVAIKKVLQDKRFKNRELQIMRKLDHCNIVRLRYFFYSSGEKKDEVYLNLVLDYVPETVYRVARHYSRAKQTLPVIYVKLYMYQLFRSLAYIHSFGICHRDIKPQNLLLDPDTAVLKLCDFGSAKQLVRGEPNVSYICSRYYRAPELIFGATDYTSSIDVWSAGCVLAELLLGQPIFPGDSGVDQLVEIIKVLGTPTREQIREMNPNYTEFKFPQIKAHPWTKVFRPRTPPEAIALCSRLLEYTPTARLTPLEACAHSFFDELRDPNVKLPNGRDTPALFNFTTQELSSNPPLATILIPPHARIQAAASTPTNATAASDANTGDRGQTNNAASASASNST
Description: Since it was disclosed that the hydrophobic residues of alpha helix of Axin were accumulated to the hydrophobic groove formed by the C-terminal loop of GSK3, in the result of structural analysis of Axin-GSK3 binding announced in the past (Dajani R et al., EMBO J. 22:494-501, 2003), the present inventors hypothesized that niclosamide binds to the hydrophobic groove of GSK3 and interferes with the function of Axin, and in order to confirm it, they designed in vitro analysis to confirm competitive inhibition by niclosamide of recombinant GSK3 which binds to a 19-mer FITC-linked Axin peptide.
His-tagged recombinant GSK3 beta was obtained from sf9 insect cells by the known method (Lee D G, et al. Nat Commun. 5:4423, 2014). The FITC-linked 19-mer Axin peptide known to bind to GSK3 as amphipathic alpha-helix (Axin1, 383-401, VEPQKFAEELIHRLEAVQR) was chemically synthesized (Peptron). In order to confirm competitive binding of the synthesized Axin peptide and niclosamide, His-tagged recombinant GSK3 and […] were treated with niclosamide for 2 hours, and were washed with PBS 3 times and then quantitative fluorometry was performed using […]. The fluorescence strength was shown in proportion to the fluorescence strength obtained in the negative control group from 3 times of experiments.

HCT116 and SW480 cells = test: Tumor growth of HCT116 and SW480 cells injected into nude mice; assay type: in vivo; settings: intraperitoneal administration daily
Description: Next, the effect of niclosamide having tumor formation potential in vivo experiment of HCT116 and SW480 cells was investigated.
Colorectal cancer cell lines HCT116 (5×10^6 cells) and SW480 (5×10^6 cells) were mixed in 100 μl PBS and were injected into flank subcutaneous tissues in female athymic nude mice (6 weeks old). Mice were randomly assigned to two groups and a vehicle and niclosamide were intraperitoneally injected daily and they were treated for […]. Niclosamide was dissolved with 10% Cremophor EL (BASF) and 0.9% NaCl and then was intraperitoneally injected. After injection of colorectal cancer cells, mice were observed daily and the weight change was measured twice a week. In addition, when a tumor was observed, it was measured with calipers. The tumor size was calculated by the equation (LXW2)/2. Herein, L is a long diameter of the tumor and W is a short diameter.

Snail, E-cadherin = test: Immunoblot of Snail and E-cadherin in SW480 xenograft tumor; assay type: in vivo, mice; settings: 50 mg/kg, 200 mg/kg intraperitoneally for 3 days
Description: In order to investigate in vivo MoA of niclosamide controlling Snail-mediated EMT, through xenografts, the change of protein amount of Snail and E-cadherin in the tumor by niclosamide treatment was confirmed. The colorectal cancer cell line, SW480 cells (5×10^6) were subcutaneously injected to nude mice. When the tumor size became 500 mm^3 on average, mice were randomly divided into 3 groups, and a vehicle or niclosamide (50 mg/kg, 200 mg/kg) was intraperitoneally injected for 3 days. After sacrificing mice, the tumor tissue part was separated using Pro-prep protein extraction solution (#17081, Intron), and the amount of protein of Snail and E-cadherin in the tumor sample was measured by immunoblot assay.

[3] = tested on: TCF/LEF transcriptional activity induced by mutant APC; test: TCF/LEF transcriptional activity in 293 cell transformed by mutant APC; assay type: cell-based; settings: 0, 0.125, 0.25, 0.5 μM, 24 hours
Description: Based on the results of Examples 2-5 that niclosamide inhibited Wnt activity and EMT through Axin-GSK3 inhibition, whether niclosamide could attenuate the TCF/LEF transcriptional activity induced by mutant APC was confirmed.
After transforming the mutant APC expression vector, pCMV-neo-Bam APC 1-1309 (#16508, Addgene) or pCMV-neo-BamAPC 1-1941 (#16510, Addgene) and Topflash reporter vector to 293 cell (ATCC), niclosamide (0 μM, 0.125 μM, 0.25 μM and 0.5 μM) was treated for 24 hours. The TCF/LEF transcriptional activity was quantified by measuring the luciferase activity as same as Example 2.

intestinal adenoma = test: Adenoma formation in APC-MIN mice model; assay type: in vivo
Description: In addition, in order to confirm the therapeutic effect of niclosamide in vivo, the effect of niclosamide affecting on adenoma formation in APC-MIN (multiple intestinal neoplasia, APCΔ850) mice model was confirmed.
APC-MIN mice were prepared by crossbreeding of wild-type C57BL/6J (APC+/+) females and MIN C57BL/6J (APCMin/+) males, and APC-MIN descendants were randomly assigned in subgroups at 3 weeks age by identifying with PCR-based assay. A vehicle or niclosamide (50 mg/kg) was intraperitoneally injected daily (6 days/week), and mice were observed daily, and the weight was measured twice a week. After the end of 14 weeks, mice were sacrificed and the whole intestine was collected and intestinal flakes were opened longitudinally with scissors, and were washed with saline and were unfolded, and then tissues were obtained. The tissues were fixed with 10% formalin for 24 hours and were washed with 70% alcohol. The fixed intestinal tissues were observed using a stereomicroscope, and the size of adenoma (small, <1 mm; medium 1˜3 mm; large >3 mm) was discriminated and counted for each mouse. In case of oral administration, APC-MIN mice ingested niclosamide mixed with 15% sugar gel vehicle daily (6 days/week) for 14 weeks. The number and size of adenoma were measured with a stereomicroscope.

[4] = orally administered for 14 weeks

`O=C(Nc1ccc([N+](=O)[O-])cc1Cl)c1cc(Cl)ccc1O` [niclosamide] was tested, and the expression of beta-catenin (beta-catenin (β-catenin)) was “reduced”, the TCF/LEF transcriptional activity [1] was “reduced” and the “interaction between recombinant GSK3 and synthesized Axin peptide” value [2] was “inhibited in proportion to the administration concentration”. For the same compound, the “tumor growth of colorectal cancer cells” value (HCT116 and SW480 cells) was “significantly inhibited”, the “amount of E-cadherin in tumor” value (Snail, E-cadherin) was “increased” and the “presence of Snail in tumor” value (Snail, E-cadherin) was “reduced”. For the same compound, the “TCF/LEF transcriptional activity increased by mutant APC” value [3] was “reduced”, the body weight (intestinal adenoma; intraperitoneal 50 mg/kg daily, 14 weeks) was “did not change” and the intestinal adenoma (intestinal adenoma; intraperitoneal 50 mg/kg daily, at 14 weeks) was “significantly reduced”. For the same compound, the “condition of experimental animal” value (intestinal adenoma; [4]) was “stable during the drug treatment” and the intestinal adenoma formation (intestinal adenoma; [4]) was “significantly inhibited”.
